{"source": "patent US10300052B2", "about": "“Methods for increasing CFTR activity” (THE UAB RESEARCH FOUNDATION, priority 2012, dated 2019)", "key": {"[1]": {"test_system": "HBE cells", "experiment": "Mucus transport studies (fluorescent beads) in HBE cells", "assay_type": "cell-based, human", "conditions": "ivacaftor 10 μM basolateral, co-stimulated with VIP 30 nM, vs control (FIG. 2C)", "procedure": "HBE cells were washed with sterile PBS twice 1-2 days prior to addition of PEG beads. Fifty (50) μl of Diamine polyethylene glycol (PEG) coated fluorescent beads (1 μm, Molecular Probes, Eugene, Oreg., 1:500 dilution in PBS) were added to the apical surface by using a microsprayer aerosolizer (Penn-Century Inc Model IA-1B, Wyndmoor, Pa.). Following 24 h incubation, baseline images were obtained and then test compounds added to the basolateral compartment. Mucociliary transport (MCT) images were captured by time-lapse fluorescence imaging at four regions of interest per well located 1 mm from the periphery of the well and at each quadrant using an inverted epifluorescence microscope (Nikon Diaphot, Melvin, N.Y.; 488 nm excitation/519 nm emission). Linear transport rates were computed using Metamoph 7.0 by analyzing 10-15 particles per region (7)."}, "[2]": {"test_system": "human bronchial tissue", "experiment": "μOCT imaging of airway epithelial function in human bronchial tissue", "procedure": "FIGS. 6A-6C show the effects of CFTR activators on airway epithelial function in human bronchial tissue by μOCT. FIGS. 6A-6C show ASL depth (FIG. 6A), CBF (FIG. 6B) and MCT (FIG. 6C), respectively in response to ivacaftor treatment (10 μM).\nTo further investigate the role of CFTR activators in modulating airway epithelial cell function, CFTR activators were studied in combination with human bronchial tissue from a failed healthy donor. Human bronchial tissue was obtained and maintained as described herein. Control experiments were performed with the human bronchial tissue being exposed to DMSO control only (0.2%) and compared to ivacaftor treatment. FIGS. 6A-6C show ASL depth, CBF and MCT, respectively.\nSamples of human trachea tissue were obtained from normal donor explant organs not selected for lung transplantation. Lung, mainstem bronchi, and trachea were resected en-bloc, transferred on wet ice, and large airways excised. Airway tissues were then immersed in ice cold DMEM following resection for transfer, then allowed to equilibrate to room temperature prior to mOCT imaging.\nThe μOCT system is a spectral-domain OCT implementation with several improvements to standard OCT that yield high resolution in both lateral and axial directions. The general layout and axial resolution characterization have been described (Liu et al., PLOSOne, 8(1), E54473-2013). A super-continuum source (Fianium SC450) provides the high-bandwidth, short coherence length light necessary for high axial resolution ([…]). […]\nμOCT imaging was performed on various cells cultures with illumination incident on the apical side of the cells. […] ASL and PCL were measured directly from the thicknesses of the visible layers in the image with a correction applied for the index of refraction in the liquid (n=1.33). ASL and PCL were evaluated at 5 equally distributed regions of the image. CBF and MCT were determined from a time series of images. […] Up to 10 regions of ciliary activity per image sequence were assessed for CBF. […]"}}}
{"smiles": "CC(C)(C)c1cc(C(C)(C)C)c(NC(=O)c2c[nH]c3ccccc3c2=O)cc1O", "note": "[ivacaftor]", "values": [{"measurement": "mucus transport (MCT)", "setting": "[1]", "result": "markedly increased above baseline"}, {"measurement": "CBF frequency", "setting": "[2]; ivacaftor 10 μM vs DMSO control (FIG. 6B)", "result": "significantly increased"}, {"measurement": "ASL depth", "setting": "[2]; ivacaftor 10 μM, DMSO control approximately 10 microns (FIG. 6A)", "result": "approximately 30 microns"}, {"measurement": "MCT", "setting": "[2]; ivacaftor 10 μM, control less than 0.01 mm/min (FIG. 6C)", "result": "~0.04", "unit": "mm/min"}]}
